Experimental data: the supplement of paper PMC9663587

Legend:
Assay in all cases: GRmax, 72 h; higher = less effect;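 further: breast cell lines in 384-well plates, nine doses across a 10^4 range, Dye Drop imaging of viable cells vs DMSO and time-zero plates, GR 0 means no net growth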
[1] = system: HCC1937
[2] = system: HCC1569
[3] = system: CAL51
[4] = system: SUM190PT
[5] = system: PDXHCI002
[6] = system: MDAMB436
[7] = system: UACC812
[8] = system: HCC1954
[9] = system: CAL120
[10] = system: EVSAT
[11] = system: HCC1187
[12] = system: AU565
[13] = system: HCC1143

SMILES | GRmax, 72 h [1] [GR] | GRmax, 72 h [2] [GR] | GRmax, 72 h [3] [GR] | GRmax, 72 h [4] [GR] | GRmax, 72 h [5] [GR] | GRmax, 72 h [6] [GR] | GRmax, 72 h [7] [GR] | GRmax, 72 h [8] [GR] | GRmax, 72 h [9] [GR] | GRmax, 72 h [10] [GR] | GRmax, 72 h [11] [GR] | GRmax, 72 h [12] [GR] | GRmax, 72 h [13] [GR]
Nc1cc(C(F)(F)F)c(-c2cc(N3CCOCC3)nc(N3CCOCC3)n2)cn1 [Buparlisib/NVP-BKM120] (max 10 µM) | -0.226 | -0.163 | -0.388 | -0.342 | -0.48 | -0.287 | -0.822 | -0.458 | -0.272 | -0.499 | -0.608 | -0.555 | -0.436
COc1cc2nccc(Oc3ccc(NC(=O)C4(C(=O)Nc5ccc(F)cc5)CC4)cc3)c2cc1OC [Cabozantinib] (max 10 µM) | 0.76 | 0.723 | 0.306 | -0.0122 | 0.234 | 0.0862 | 0.298 | 0.639 | 0.257 | 0.654 | 0.222 | 0.312 | 0.512
COc1cc2c(Oc3ccc4[nH]c(C)cc4c3F)ncnc2cc1OCCCN1CCCC1 [Cediranib/AZD2171] (max 10 µM) | 0.278 | 0.875 | -0.103 | 0.893 | -0.432 | -0.382 | -0.575 | -0.32 | -0.124 | 0.498 | 0.349 | 0.887 | 0.0093
Cc1cc(Nc2ncc(Cl)c(Nc3ccccc3S(=O)(=O)C(C)C)n2)c(OC(C)C)cc1C1CCNCC1 [Ceritinib/LDK378] (max 10 µM) | -0.573 | -0.83 | -0.476 | -0.375 | -0.634 | -0.697 | -0.983 | -0.445 | -0.432 | 0.646 | 0.121 | 0.498 | -0.422
Cc1nc(Nc2ncc(C(=O)Nc3c(C)cccc3Cl)s2)cc(N2CCN(CCO)CC2)n1 [Dasatinib] (max 10 µM) | 0.0153 | -0.059 | 0.0983 | 0.423 | 0.0322 | 0.653 | -0.714 | 0.274 | 0.176 | 0.171 | 0.069 | 0.26 | 0.257
COc1cccc2c1C(=O)c1c(O)c3c(c(O)c1C2=O)C[C@@](O)(C(=O)CO)C[C@@H]3O[C@H]1C[C@H](N)[C@H](O)[C@H](C)O1 [Doxorubicin] (max 3.162 µM) | -0.166 | -0.132 | -0.48 | -0.123 | -0.654 | -0.129 | -0.919 | -0.338 | -0.247 | -0.192 | -0.83 | -0.452 | -0.251
CO[C@H]1C[C@@H]2CC[C@@H](C)[C@@](O)(O2)C(=O)C(=O)N2CCCC[C@H]2C(=O)O[C@H]([C@H](C)C[C@@H]2CC[C@@H](OCCO)[C@H](OC)C2)CC(=O)[C@H](C)/C=C(\C)[C@@H](O)[C@@H](OC)C(=O)[C@H](C)C[C@H](C)/C=C/C=C/C=C/1C [Everolimus] (max 10 µM) | 0.632 | 0.555 | 0.548 | 0.354 | 0.987 | 0.615 | -0.0713 | 0.326 | 0.527 | 0.354 | 0.568 | 0.4 | 0.557
CCC(=O)Nc1ccc(C(=O)Nc2ccc(Nc3ncc4c(n3)N(C)c3ccc(C)cc3C(=O)N4C)cc2)cc1 [FMF-03-145-1] | -0.0558 | -0.125 | 0.0325 | 0.0989 | -0.102 | -0.189 | -0.198 | -0.181 | 0.191 | -0.139 | -0.506 | -0.153 | 0.09
COc1cc(N2CCN(C)CC2)ccc1Nc1ncc2c(n1)N(C)c1ccccc1C(=O)N2CC(F)(F)F [FMF-03-146-1] | 0.846 | 1.03 | 0.922 | 0.886 | 1.02 | 0.89 | 0.918 | 0.808 | 0.968 | 0.994 | 0.955 | 0.63 | 0.815
CN1CC[C@H](c2c(O)cc(O)c3c(=O)cc(-c4ccccc4Cl)oc23)[C@H](O)C1 [Flavopiridol] (max 1 µM) | -0.215 | -0.177 | -0.0935 | -0.324 | -0.143 | -0.0264 | -0.813 | -0.526 | -0.0459 | -0.514 | -0.885 | -0.69 | -0.316
CC(C)n1nc(-c2ccc3oc(N)nc3c2)c2c(N)ncnc21 [INK128/MLN0128] (max 3.162 µM) | 0.358 | 0.088 | 0.0529 | -0.425 | 0.229 | 0.211 | -0.707 | -0.083 | -0.0097 | -0.31 | 0.0961 | -0.496 | 0.0314
CC(C)NC[C@@H](C(=O)N1CCN(c2ncnc3c2[C@H](C)C[C@H]3O)CC1)c1ccc(Cl)cc1 [Ipatasertib/GDC0068] (max 10 µM) | 0.535 | 0.234 | 0.387 | 0.525 | 1.1 | 0.611 | 0.0704 | 0.251 | 0.599 | -0.311 | 0.409 | 0.274 | 0.751
CN(C)C(=O)c1cc2cnc(Nc3ccc(N4CCNCC4)cn3)nc2n1C1CCCC1 [LEE011/Ribociclib] (max 10 µM) | 1.03 | 0.897 | 0.385 | 0.199 | 0.508 | 0.951 | 0.0889 | 0.543 | 0.632 | 0.616 | 0.56 | 0.244 | 0.298
CCNC(=O)c1noc(-c2cc(C(C)C)c(O)cc2O)c1-c1ccc(CN2CCOCC2)cc1 [Luminespib/NVP-AUY922] (max 1 µM) | -0.187 | -0.0081 | -0.339 | -0.433 | -0.281 | -0.0492 | -0.521 | -0.374 | -0.115 | -0.29 | -0.476 | -0.231 | -0.192
CCOc1cc2ncc(C#N)c(Nc3ccc(OCc4ccccn4)c(Cl)c3)c2cc1NC(=O)/C=C/CN(C)C [Neratinib/HKI272] (max 3.162 µM) | 0.3 | 0.117 | 0.28 | 0.42 | -0.161 | 0.0162 | -0.756 | -0.0909 | -0.261 | 0.649 | 0.421 | -0.638 | 0.0791
O=C(c1cc(Cc2n[nH]c(=O)c3ccccc23)ccc1F)N1CCN(C(=O)C2CC2)CC1 [Olaparib/AZD2281] (max 10 µM) | 0.685 | 0.565 | 0.36 | 0.545 | 0.265 | 0.238 | 0.199 | 0.527 | 0.269 | 0.773 | 0.0867 | 0.572 | 0.456
CC(=O)O[C@H]1C(=O)[C@@]2(C)[C@H]([C@H](OC(=O)c3ccccc3)[C@]3(O)C[C@H](OC(=O)[C@H](O)[C@@H](NC(=O)c4ccccc4)c4ccccc4)C(C)=C1C3(C)C)[C@]1(OC(C)=O)CO[C@@H]1C[C@@H]2O [Paclitaxel] (max 1 µM) | 0.0104 | 0.0183 | -0.22 | -0.283 | -0.512 | -0.218 | -0.852 | -0.396 | -0.199 | -0.271 | -0.754 | -0.498 | -0.335
CS(=O)(=O)N1CCN(Cc2cc3nc(-c4cccc5[nH]ncc45)nc(N4CCOCC4)c3s2)CC1 [Pictilisib/GDC0941] (max 10 µM) | 0.278 | -0.054 | 0.0266 | 0.0145 | -0.0101 | 0.285 | -0.601 | -0.227 | 0.194 | -0.565 | -0.293 | -0.405 | -0.129
O=C1NC(=NCc2cccs2)SC1=Cc1ccc2ncccc2c1 [R0-3306] (max 10 µM) | -0.117 | -0.166 | 0.232 | -0.11 | 0.0529 | 0.0289 | -0.171 | -0.0775 | 0.15 | -0.27 | -0.648 | -0.185 | -0.114
CNCc1ccc(-c2[nH]c3cc(F)cc4c3c2CCNC4=O)cc1 [Rucaparib] (max 10 µM) | 0.815 | 0.75 | 0.704 | 0.771 | 0.516 | 0.222 | 0.661 | 0.906 | 0.613 | 0.908 | 0.802 | 0.718 | 0.785
CC1(N)CCN(c2cnc(-c3cccc(Cl)c3Cl)c(N)n2)CC1 [SHP099] (max 10 µM) | 0.797 | 0.92 | 0.904 | 0.749 | 0.63 | 0.941 | 0.651 | 0.569 | 0.869 | 0.952 | 0.77 | 0.97 | 0.796
CN1CCN(CCOc2cc(OC3CCOCC3)c3c(Nc4c(Cl)ccc5c4OCO5)ncnc3c2)CC1 [Saracatinib/AZD0530] (max 10 µM) | 0.651 | 0.161 | 0.258 | 0.581 | 0.0015 | 0.724 | -0.847 | 0.0936 | 0.526 | 0.0408 | 0.15 | 0.147 | 0.388
Cc1cc(C(C)Nc2ccccc2)c2nc(N3CCOCC3)cc(=O)n2c1 (stereo not given) [TGX221] (max 10 µM) | 0.838 | 0.774 | 0.91 | 0.989 | 0.855 | 0.722 | 0.0432 | 0.961 | 1.02 | 0.331 | 0.46 | 0.607 | 0.918
CN(C)C/C=C/C(=O)Nc1ccc(C(=O)Nc2cccc(Nc3ncc(Cl)c(-c4c[nH]c5ccccc45)n3)c2)cc1 [THZ1] (max 1 µM) | -0.386 | -0.325 | 0.107 | -0.467 | -0.193 | -0.0798 | -0.348 | -0.507 | -0.128 | -0.245 | -0.852 | -0.64 | -0.318
CN(C)C/C=C/C(=O)Nc1ccc(C(=O)N2CCC[C@@H](Nc3ncc(Cl)c(-c4c[nH]c5ccccc45)n3)C2)cc1 [THZ531] (max 1 µM) | -0.282 | -0.155 | 0.559 | -0.725 | -0.198 | 0.018 | 0.556 | -0.303 | -0.0211 | 0.0226 | -0.852 | -0.527 | -0.23
CN(C)C/C=C/C(=O)Nc1ccc(C(=O)Nc2cccc(Nc3cc(-c4c[nH]c5ccccc45)ncn3)c2)cc1 [THZ-P1-2] (max 10 µM) | -0.777 | -0.359 | 0.751 | -0.218 | 0.721 | -0.278 | -0.371 | -0.649 | -0.278 | 0.76 | 0.283 | -0.648 | -0.404
Cc1nc(-c2cn3c(n2)-c2ccc(-c4cnn(C(C)(C)C(N)=O)c4)cc2OCC3)n(C(C)C)n1 [Taselisib/GDC0032] (max 10 µM) | 0.121 | -0.121 | -0.413 | -0.253 | -0.137 | 0.243 | -0.636 | -0.363 | 0.151 | -0.535 | -0.0769 | -0.531 | -0.0942
O=C1NC(=O)[C@@H](c2cn3c4c(cccc24)CCC3)[C@@H]1c1c[nH]c2ccccc12 [Tivantinib/ARQ197] (max 10 µM) | -0.0621 | -0.11 | -0.282 | -0.138 | -0.487 | -0.271 | -0.84 | -0.385 | -0.256 | -0.336 | -0.761 | -0.514 | -0.312
Nc1ccc(-c2ccc3ncc4ccc(=O)n(-c5cccc(C(F)(F)F)c5)c4c3c2)cn1 [Torin2] (max 1 µM) | 0.0726 | -0.0827 | -0.152 | -0.391 | -0.102 | 0.123 | -0.817 | -0.328 | -0.0115 | -0.334 | -0.0468 | -0.39 | -0.153
CC[C@@H]1C(=O)N(C)c2cnc(Nc3ccc(C(=O)N[C@H]4CC[C@H](N5CCN(CC6CC6)CC5)CC4)cc3OC)nc2N1C(C)C [Volasertib/BI6727] (max 1 µM) | -0.148 | 0.0147 | -0.337 | -0.309 | -0.589 | -0.179 | -0.496 | -0.154 | 0.0258 | -0.375 | -0.708 | -0.473 | -0.345
